# Measurements reported in patent publication US20130005573A1, “COMPOSITIONS AND METHODS OF USE FOR KETONES AND ALDEHYDES AS HERBICIDES” (North Carolina State University, priority 2010, published 2013).
# Legend:
# bean plants = assay: Herbicidal spray treatment on bean plants; assay type: in vivo; settings: 20% solution (wt/vol) in absolute ethanol, sprayed to run off
# Method: Experiment 3 exemplifies the herbicidal activity of 2-undecanone on bean plants. The bean plant on the left in FIG. 3 was treated with a 20% solution (wt/vol) of 2-undecanone in a carrier comprising absolute ethanol. The bean plant on the right was treated with the absolute ethanol carrier only. Treatments were made by spraying each plant until “run off” levels were achieved. […] In contrast, the plant on the right (ethanol control) never differed in appearance from the no-spray controls (not shown). […] All treatments of the bean plants described above were performed in North Carolina during the summer months under a shelter; the bean plants were protected from the elements but were watered regularly. The plants also received direct sunlight for about 8 hours from approximately noon until sunset.
# Tomato seedlings = assay: Greenhouse fine mist foliar spray on tomato seedlings; assay type: in vivo
# Method: (§1) This experiment was conducted in a greenhouse setting. Tomato seedlings in 4 to 6 true-leaf stage and 3-5 inch tall potato plants were treated with a fine mist spray comprising a solution of >2% 2-undecanone in 95% ethanol.
# potato plants = assay: Greenhouse fine mist foliar spray on potato plants; assay type: in vivo; settings: >2% in 95% ethanol
# Method: as §1
# wild-type grass = assay: Spray treatment of test plots of wild-type grass; assay type: in vivo, grass (monocotyledon)
# Method: Two experiments were initiated that tested the activity of an acyclic ketone on a common monocotyledon. The test plots comprised similar areas of wild-type grass. The area of each test plot of grass was defined to be the area within a square measuring approximately 15 inches on a side. The experiments were conducted using two different formulations of the same test material: the formulation tested in Experiment 6 comprised a 5% (wt/vol) mixture of undecanone in absolute ethanol; the formulation tested in Experiment 7 comprised a 5% (wt/vol) mixture of undecanone in water.
# A measured amount of each formulation was sprayed onto its appropriate test area using a hand held spray bottle; the spray bottle produced a fine mist in each case. […] The details of each experiment are provided separately below.
# In Experiment 6, 40 ml of a 5% formulation of the test material in ethanol (wt/vol) was evenly sprayed on one of two adjacent test plots of grass. This treated plot was located on the right side of the test plot pair. The adjacent test plot (left; control plot) was sprayed in an identical fashion with a spray bottle containing 40 mL of the ethanol carrier as a control; the time difference for completing the spraying of the two grassy test plots was less than 2 minutes. The effects of the spray formulations on the test plots were noted over time and images were captured at several time points for later comparisons (see FIGS. 5A, 5B and 5C for images). FIGS. 5A, 5B and 5C are images showing the effects of spraying a 5% formulation of the test material in ethanol and ethanol control on test plots of grass in accordance with embodiments of the present disclosure.
# Visible differences were observed within a 30 minute period following the spray applications of control and test compound formulations comprising ethanol. […] The appearance of the plots at the one-hour time point are shown in the FIG. 5B image, and the appearance of the plots at the twenty four-hour time point are shown in the FIG. 5C image.
# The conditions and amounts of materials used in Experiment 7 were similar to those employed in Experiment 6, with the exception that both the formulation comprising the active ingredient and the solution of carrier comprised water in the place of ethanol. In Experiment 7, the early toxicity effects were delayed compared to the early toxicity effects noted in Experiment 6. […] The appearance of the areas treated with the formulation comprising water were photographed at the 24 hour time point and can be seen in the image of FIG. 6B.
# wild henbit = assay: Herbicidal spray treatment on henbit under winter field conditions; assay type: in vivo, henbit (Lamium amplexicaule)
# Method: FIG. 1 is an image showing results of tests used to determine the herbicidal activity of a spray treatment comprising the use of a 5% solution of 2-undecanone in ethanol. The image was captured approximately 2 hours after the spray-applications of materials to henbit under winter field conditions. Both of the weed groups shown in FIG. 1 are groups of wild henbit. Treatment of the group of henbit plants on the left side of FIG. 1 (control group) consisted of spraying the group with 100 ml of the carrier as a fine mist; the carrier comprised absolute ethanol (without the herbicide). Treatment of the group of henbit plants on the right side of FIG. 1 (treatment group) consisted of spraying the group with 100 ml of the herbicide/carrier mixture (5 wt % of 2-undecanone/100 mL solution) as a fine mist. The image was captured 2 hours after treatment.
# Because the sprayer produced a very fine mist in each case, and there may have been spray drift (from the wind) during these treatments, evaporation and dissipation of these misty sprays occurred to some degree before and while each spray hit its targeted group of plant material.
# Experiment 2 is similar to Experiment 1, in that it tests the herbicidal activity of an experimental spray treatment on henbit. The herbicidal spray treatments of Experiment 2 comprised the use of a 20% solution of 2-undecanone in ethanol (20 wt % of 2-undecanone/100 mL solution). The experimental results are featured in FIGS. 2A, 2B and 2C, the henbit treatment group receiving the 2-undecanone spray treatment is located on the right side of the image shown in FIG. 2A. The control group was treated with a spray comprising just the carrier (absolute ethanol); the henbit treatment group receiving this carrier-only spray treatment (control group) is located on the left side of the image shown in FIG. 2A. The image was captured 4 days after the spray-applications of these materials to the groups of henbit under winter field conditions. […]
smiles,measurement,setting,value
CCCCCCCCCC(C)=O [2-undecanone],leaf color of treated bean plant,bean plants; 2 weeks after treatment,yellow
same,onset of change in appearance of treated bean plant,bean plants; day of treatment,started to change its appearance and character shortly after the spray treatment was complete
same,subsequent outcome after foliage death,"Tomato seedlings; >2% in 95% ethanol, fine mist to foliage",plant death
same,time to death of the plants' foliage,"Tomato seedlings; >2% in 95% ethanol, fine mist to foliage, seedlings in 4 to 6 true-leaf stage",≤ 24 h
same,effect on tomato plants at low concentration,"Tomato seedlings; less than 1% in 95% ethanol, similar application",death of foliage followed by re-foliation some days later
same,time to death of the plants' foliage,potato plants; 3-5 inch tall plants,≤ 24 h
same,subsequent outcome after foliage death,potato plants; fine mist to foliage,plant death
same,course of herbicidal toxicity over time,"wild-type grass; Experiment 6: 5% (wt/vol) in ethanol, up to 24 hours",increase with time
same,time to visible differences versus control plot,wild-type grass; Experiment 6: 40 ml of 5% (wt/vol) in ethanol,≤ 30 min
same,appearance of treated grass,"wild-type grass; Experiment 6: 40 ml of 5% (wt/vol) in ethanol, after 30 minutes",appeared brown
same,time to first toxicity effects after spraying,wild-type grass; Experiment 7: 5% (wt/vol) in water,2 to 3 h
same,visual appearance of water-carrier plots compared with ethanol-carrier plots,"wild-type grass; Experiment 7: 5% (wt/vol) in water, at 24 hours",similar
same,changes in color and vitality of treated henbit plants,"wild henbit; 5% solution in ethanol, 100 ml fine mist, below run-off, approximately 2 hours after treatment","had lost much of their green color and vitality, and had turned yellow"
same,overall state of treated henbit group versus control,"wild henbit; 20% (wt/vol) in absolute ethanol, 100 ml spray, 4 days after treatment",appeared to be dead or dying
same,effect on stems of treated henbit plants,"wild henbit; 20% (wt/vol) in absolute ethanol, 100 ml spray, below run-off, 4 days after treatment",had become significantly weakened and had become flaccid
